Laboratory results as given in patent US4950602A, “Inhibition of lactate production by pyruvate adducts” (Cornell Research Foundation, Inc., priority 1987, dated 1990).
Entries after “also recorded” stand apart in the source; their conditions may differ.

How the values were obtained:
[1] = target: T1, bovine heart α-ketoglutarate dehydrogenase complex (Bos taurus, UniProt F1N206); test: Purified bovine heart α-ketoglutarate dehydrogenase complex with RAP; assay type: biochemical; conditions: 20 μM RAP
T1 construct: purchased Sigma Chemical Company (St. Louis, Mo.); host or cells: bovine heart
Excerpt: Enzymes and enzyme assays. Rabbit muscle glyceraldehyde-3-phosphate dehydrogenase (80 U/mg: ammonium sulfate suspension), rabbit muscle glycerol-3-phosphate dehydrogenase (40 U/mg; ammonium sulfate suspension),beef liver glutamate dehydrogenase (120 U/mg: in 50% glycerol), mitochondrial pig heart malate dehydrogenase (1100 U/mg; in 50% glycerol) and yeast hexokinase (140 U/mg; ammonium sulfate suspension) were purchased from Boehringer Mannheim Corp. (Indianapolis). Beef heart lactate dehydrogenase (280 U/mg) was purchased from Worthington Biochemical Corporation (Freehold, N.J.). Porcine heart L-alanine aminotransferase (130 U/mg), rabbit muscle phosphofructokinase (140 U/mg; ammonium sulfate suspension), bovine heart α-ketoglutarate (8 U/mg) and pyruvate (5 U/mg) dehydrogenase complexes, sodium pyruvate, L-methionine-SR-sulfoximine, DL-vinylglycine, NAD^+, NADH and NAD^+ analogues (3-acetylpyridine, thionicotinamide, and 3-pyridinealdehyde adenine dinucleotides) were purchased from Sigma Chemical Company (St. Louis, Mo.).
Each of the enzymes was assayed by procedures in which change of absorbance at 340 nm due to NADH was followed essentially as described by Bergmeyer (1974, Methods of Enzymatic Analysis, 2nd Eng. Ed., Verlag Chemie Weinheim Academic Press, N.Y.) with the following exceptions. […]

glutamate dehydrogenase = target: T2, glutamate dehydrogenase (Rattus norvegicus, UniProt P10860); test: Rat brain glutamate dehydrogenase with RAP; assay type: biochemical; conditions: 20 μM RAP
T2 construct: Commercial and rat brain glutamate dehydrogenases; from tissue; host or cells: rat brain
Experimental: (§1) Each of the enzymes was assayed by procedures in which change of absorbance at 340 nm due to NADH was followed essentially as described by Bergmeyer (1974, Methods of Enzymatic Analysis, 2nd Eng. Ed., Verlag Chemie Weinheim Academic Press, N.Y.) with the following exceptions. Phosphofructokinase was assayed according to the method of Lai et al (1984, J. Neurochem., 42:438-446). NAD^+ -linked isocitrate dehydrogenase was assayed as described by Lai and Clark (1976, Biochem. J., 154:423-432). Pyruvate and α-ketoglutarate dehydrogenase complexes were respectively assayed according to the methods of Lai and Sheu (1985, J. Neurochem., 45:1861-1868) and Lai and Cooper (1986) (J. Neurochem, 47:1376-1386).

[2] = system: rat brain lactate dehydrogenase; test: Inhibition of rat brain lactate dehydrogenase (rat brain homogenate); assay type: biochemical; conditions: for Relative Activity (%) Rat Brain: rat brain homogenate, 0.24 mM pyruvate, 0.1 mM NADH, pH 7.2, 25° C.
Experimental: as §1
The reaction mixture (1 ml) contained 0.24 mM sodium pyruvate, 0.1 mM
NADH, 100 mM potassium phosphate buffer (pH 7.2) and either purified
bovine heart lactate dehydrogenase (0.01 U) or rat brain homogenate
containing ~0.02 U of lactate dehydrogenase activity; 25° C.
Since APADpyruvate adduct and RAP have a tendency to revert to pyruvate
they were added to the reaction mixture just prior to addition of enzyme.
Because the kinetics obtained with tightbinding inhibitors depends on the
order of addition of substrates and inhibitors the enzyme was always adde
last. Each value is the average of at least 3 determinations. Each of the […]

[3] = Stability of pyruvate adducts in solution and on storage; assay type: physicochemical; conditions: neutral ph solution; neutral pH values; read-out: t1/2 of reversion to free pyruvate
Experimental: The procedure used was a modification of that of Everse et al (1971, supra) for the synthesis of the NAD-pyruvate adduct Sodium pyruvate (15 mg) and NAD^+ (or NAD^+ analogue) (100 mg) were dissolved in deaerated water. The pH was brought to 11.0 with concentrated NaOH. After standing at room temperature for one hour, the solution was applied to the top of a column of Whatman DE-52 (2×3 cm), washed with deaerated distilled water. The column was eluted with 30 ml of 25 mM ammonium bicarbonate at 4° C. Unreacted pyruvate, NAD^+ and NAD^+ analogues were eluted in this fraction. The highly-colored (yellow-orange) adducts were eluted with 5-6 ml of 25 mM ammonium bicarbonate containing 4% NaCl. The fraction was split into approximately 1 ml portions, flushed with nitrogen, and stored at -70° C. […] Nevertheless, under the slightly alkaline conditions of storage and low temperature, these adducts remained stable for at least 3 months as judged by their continued potency toward inhibition of lactate dehydrogenase and maintenance of absorbance at 340 nm. […] The presence of a reactive carbonyl function was monitored as follows: 0.2-0.3 μ mole of the adduct was added to 50 μl of 0.1% 2,4-dinitrophenylhdrazine in 2 M HCl. […] The absorbance at 430 nm was compared to equivalent amounts of pyruvate and NAD^+ analogue taken through the same procedure. […]

rats = test: Effects of RAP in vivo, intravenous administration to rats; set-up: species or system rat; conditions: 20 μmole/kg
Experimental: Animals. Brain tissue was obtained from young adult male Wistar rats (45-50 days old). In one series of experiments, rats that had previously been fed ad libidum were anesthetized with 4% halothane and a V-3 cannula was inserted in the femoral vein. The animals were immobilized by taping them to a lead brick. After they had recovered sufficiently, they were injected with the RAP solution. After initial observation for any side-reactions, the rats were untaped and their wounds were closed under anesthesia. The rats were then placed back in their cages for further observation.
The animals survived for 3 weeks before being killed.

lactate dehydrogenase = test: Determination of inactive E.RAP enzyme complex; assay type: biochemical, rat; conditions: 2 μM initial concentration
[4] = target: T3, glyceraldehyde-3-phosphate dehydrogenase (Rattus norvegicus, UniProt P04797); test: Rat brain glyceraldehyde-3-phosphate dehydrogenase with RAP; assay type: biochemical; conditions: 20 μM RAP
T3 construct: from tissue; host or cells: rat brain
Experimental: as §1

T2 sequence (P10860 54-558): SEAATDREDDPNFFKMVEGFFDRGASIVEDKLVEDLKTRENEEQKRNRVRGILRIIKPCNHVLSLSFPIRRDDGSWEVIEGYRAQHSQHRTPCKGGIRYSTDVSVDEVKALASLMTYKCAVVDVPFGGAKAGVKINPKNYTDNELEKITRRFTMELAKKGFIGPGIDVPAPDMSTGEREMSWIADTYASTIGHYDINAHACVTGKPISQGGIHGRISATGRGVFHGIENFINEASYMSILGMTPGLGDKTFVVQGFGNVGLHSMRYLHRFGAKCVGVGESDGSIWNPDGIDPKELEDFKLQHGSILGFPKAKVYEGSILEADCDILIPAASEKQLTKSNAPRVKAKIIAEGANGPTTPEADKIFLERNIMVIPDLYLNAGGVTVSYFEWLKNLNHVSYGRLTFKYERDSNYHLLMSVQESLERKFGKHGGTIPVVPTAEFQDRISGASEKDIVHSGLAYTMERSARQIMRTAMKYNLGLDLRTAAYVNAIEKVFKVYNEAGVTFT
T3 sequence (P04797 whole entry): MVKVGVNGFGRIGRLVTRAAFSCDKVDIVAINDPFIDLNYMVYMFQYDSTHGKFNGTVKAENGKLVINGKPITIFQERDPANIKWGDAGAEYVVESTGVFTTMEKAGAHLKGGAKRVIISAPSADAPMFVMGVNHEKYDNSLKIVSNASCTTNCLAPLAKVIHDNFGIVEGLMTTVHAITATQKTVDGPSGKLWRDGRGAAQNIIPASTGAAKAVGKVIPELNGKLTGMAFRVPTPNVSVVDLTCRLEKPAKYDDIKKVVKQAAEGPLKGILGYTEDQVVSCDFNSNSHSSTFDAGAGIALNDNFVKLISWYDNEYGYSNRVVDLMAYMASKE
T1 sequence (F1N206 36-509, one chain of several): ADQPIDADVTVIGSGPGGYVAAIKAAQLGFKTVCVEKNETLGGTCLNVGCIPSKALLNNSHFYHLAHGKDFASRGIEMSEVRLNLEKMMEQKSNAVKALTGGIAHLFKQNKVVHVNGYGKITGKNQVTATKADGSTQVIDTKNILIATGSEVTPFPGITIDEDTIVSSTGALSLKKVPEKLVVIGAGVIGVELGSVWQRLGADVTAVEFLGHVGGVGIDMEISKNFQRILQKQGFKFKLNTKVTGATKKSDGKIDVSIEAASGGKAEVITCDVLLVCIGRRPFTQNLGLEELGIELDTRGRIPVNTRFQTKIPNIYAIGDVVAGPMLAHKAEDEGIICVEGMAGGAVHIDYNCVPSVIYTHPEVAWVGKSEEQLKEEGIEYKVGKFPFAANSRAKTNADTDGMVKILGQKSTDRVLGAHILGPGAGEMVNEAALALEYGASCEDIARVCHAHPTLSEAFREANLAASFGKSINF

Structure (SMILES): Nc1ncnc2c1ncn2[C@@H]1O[C@H](COP(=O)(O)OP(=O)(O)OC[C@H]2O[C@@H](N3C=CC(CC(=O)C(=O)O)C(C=O)=C3)[C@H](O)[C@@H]2O)[C@@H](O)[C@H]1O (stereo partly drawn) [RAP, 3(-4-(reduced 3-pyridinealdehyde-adeninedinucleotide))-pyruvate]
- effect on purified bovine heart α-ketoglutarate dehydrogenase complex [1]: nor did 20 μM RAP inhibit
- effect on rat brain glutamate dehydrogenase (glutamate dehydrogenase): little or no effect
- inhibition at 20 µM (glutamate dehydrogenase): ≤ 20%
- Relative Activity (%) Rat Brain ([2]; additive 42 nM): 80%
- Relative Activity (%) Rat Brain ([2]; additive 84 nM): 56%
- Relative Activity (%) Rat Brain ([2]; additive 132 nM): 43%
- Relative Activity (%) Rat Brain ([2]; additive 180 nM): 30%
- IC50 ([2]; standard reaction of Table 1, read-out: concentration required to inhibit the standard reaction by 50%): ~100 nM
- half-life [3]: 1.5 h
- side effects as judged by gross inspection of behavior (rats): no noticeable untoward effects; also recorded: no side effects were noted
- survival before being killed (rats): 3 weeks
- growth and feeding after injection (rats; 3 weeks): grew and fed normally
- gross post-mortem examination (rats; after 3 weeks): no obvious tissue damage
- enzyme tied up as the inactive E.RAP complex (lactate dehydrogenase): approximately 90%
- effect on rat brain glyceraldehyde-3-phosphate dehydrogenase [4]: little or no effect
